Reference: patent US8415469B2, “Compounds and methods for kinase modulation, and indications therefor” (Plexxikon Inc., priority 2005, dated 2013)

Tests used:
Format in all cases: biochemical
B-Raf = biological target: T1, B-Raf (Homo sapiens, UniProt P15056); assay: AlphaScreen kinase assay, B-Raf; conditions: read-out: IC50, activity toward kinase B-Raf
T1 construct: purchased Upstate Biotechnology

B-Raf V600E = biological target: T2, B-Raf V600E (Homo sapiens, UniProt P15056, V600E); assay: AlphaScreen kinase assay, B-Raf V600E; conditions: read-out: IC50, activity toward kinase B-Raf V600E
T2 construct: P4254. pFastBacBD-CDC37 BRAF D437-K722-X, V600E; His6 with pFastBac HT leader (TEV site) (N); made in house; host or cells: Sf9 (baculovirus; chaperone CDC37 co-expressed)

c-Raf-1 = biological target: T3, c-Raf-1 (Homo sapiens, UniProt P04049); assay: AlphaScreen kinase assay, c-Raf-1; conditions: read-out: IC50, activity toward kinase c-Raf-1
T3 construct: purchased Upstate Biotechnology

FGFR1 = biological target: T4, FGFR1 (Homo sapiens, UniProt P11362, C488A/C584S); assay: AlphaScreen kinase assay, FGFR1; conditions: read-out: IC50, activity toward kinase FGFR
T4 construct: P1351.pET N6 BI-PTP FGFR A458-E765-X C488A, C584S; made in house; host or cells: E. coli (PTP1B co-expressed)

Fms = biological target: T5, Fms (Homo sapiens, UniProt P07333); assay: AlphaScreen kinase assay, Fms; conditions: read-out: IC50, activity toward kinase Fms
T5 construct: purchased Upstate Biotechnology

Kit = biological target: T6, Kit (Homo sapiens, UniProt P10721); assay: AlphaScreen kinase assay, Kit; conditions: read-out: IC50, activity toward kinase Kit
T6 construct: P1332.N6 BI PTP KIT M552-K948-X COD; His6 (N); made in house; host or cells: E. coli (PTP1B co-expressed)

Ret = biological target: T7, Ret (Homo sapiens, UniProt P07949); assay: AlphaScreen kinase assay, Ret; conditions: read-out: IC50, activity toward kinase Ret
T7 construct: P1378.pET-SF BI-PTP RET H661-R1012 HIS; made in house
T7 sequence (P07949 with tags, fused parts or gaps): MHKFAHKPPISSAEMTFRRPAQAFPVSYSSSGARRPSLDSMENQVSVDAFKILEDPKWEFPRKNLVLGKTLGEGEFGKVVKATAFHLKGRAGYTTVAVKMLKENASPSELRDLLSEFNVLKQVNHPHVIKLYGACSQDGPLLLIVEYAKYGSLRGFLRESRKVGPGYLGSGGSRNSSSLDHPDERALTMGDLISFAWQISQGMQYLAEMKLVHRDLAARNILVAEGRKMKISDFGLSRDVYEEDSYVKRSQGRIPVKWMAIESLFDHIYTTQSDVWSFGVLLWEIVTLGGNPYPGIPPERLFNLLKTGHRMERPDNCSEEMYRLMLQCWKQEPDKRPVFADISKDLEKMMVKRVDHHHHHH

Flt1 = biological target: T8, Flt1 (Homo sapiens, UniProt P17948); assay: AlphaScreen kinase assay, Flt1; conditions: read-out: IC50, activity toward kinase Flt1
T8 construct: P1826.pETN6 BI-PTP FLT1 M799-D1165-X WT; His6 (N); made in house; host or cells: E. coli (PTP1B co-expressed)
T8 sequence (P17948 with tags, fused parts or gaps): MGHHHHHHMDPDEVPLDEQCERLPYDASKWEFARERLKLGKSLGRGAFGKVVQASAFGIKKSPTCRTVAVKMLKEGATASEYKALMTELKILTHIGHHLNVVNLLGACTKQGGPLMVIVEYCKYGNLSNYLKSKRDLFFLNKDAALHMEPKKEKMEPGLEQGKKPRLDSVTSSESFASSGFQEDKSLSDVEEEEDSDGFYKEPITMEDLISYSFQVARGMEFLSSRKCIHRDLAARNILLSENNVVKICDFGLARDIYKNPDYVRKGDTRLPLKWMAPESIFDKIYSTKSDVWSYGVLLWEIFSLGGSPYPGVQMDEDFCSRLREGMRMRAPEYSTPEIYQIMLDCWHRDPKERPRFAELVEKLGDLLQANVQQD

T4 sequence (P11362 458-765 C488A/C584S): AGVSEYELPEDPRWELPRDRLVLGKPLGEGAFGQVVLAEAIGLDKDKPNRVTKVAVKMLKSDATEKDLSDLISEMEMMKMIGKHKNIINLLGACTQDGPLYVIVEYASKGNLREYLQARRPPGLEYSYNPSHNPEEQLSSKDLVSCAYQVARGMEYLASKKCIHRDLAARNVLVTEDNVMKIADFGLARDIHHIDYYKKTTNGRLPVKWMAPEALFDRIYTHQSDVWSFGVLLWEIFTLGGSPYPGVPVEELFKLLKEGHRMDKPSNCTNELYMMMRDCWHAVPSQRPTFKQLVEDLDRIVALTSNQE
T2 sequence (P15056 with tags, fused parts or gaps V600E): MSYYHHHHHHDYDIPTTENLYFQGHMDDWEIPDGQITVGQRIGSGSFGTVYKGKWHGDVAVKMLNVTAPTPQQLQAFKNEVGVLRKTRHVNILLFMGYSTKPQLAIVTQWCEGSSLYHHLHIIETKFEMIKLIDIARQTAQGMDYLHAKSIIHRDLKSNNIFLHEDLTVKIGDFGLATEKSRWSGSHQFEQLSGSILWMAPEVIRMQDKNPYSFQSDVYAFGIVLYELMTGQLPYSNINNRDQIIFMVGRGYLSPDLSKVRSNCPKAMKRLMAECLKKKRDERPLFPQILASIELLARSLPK
T3 sequence (P04049 whole entry): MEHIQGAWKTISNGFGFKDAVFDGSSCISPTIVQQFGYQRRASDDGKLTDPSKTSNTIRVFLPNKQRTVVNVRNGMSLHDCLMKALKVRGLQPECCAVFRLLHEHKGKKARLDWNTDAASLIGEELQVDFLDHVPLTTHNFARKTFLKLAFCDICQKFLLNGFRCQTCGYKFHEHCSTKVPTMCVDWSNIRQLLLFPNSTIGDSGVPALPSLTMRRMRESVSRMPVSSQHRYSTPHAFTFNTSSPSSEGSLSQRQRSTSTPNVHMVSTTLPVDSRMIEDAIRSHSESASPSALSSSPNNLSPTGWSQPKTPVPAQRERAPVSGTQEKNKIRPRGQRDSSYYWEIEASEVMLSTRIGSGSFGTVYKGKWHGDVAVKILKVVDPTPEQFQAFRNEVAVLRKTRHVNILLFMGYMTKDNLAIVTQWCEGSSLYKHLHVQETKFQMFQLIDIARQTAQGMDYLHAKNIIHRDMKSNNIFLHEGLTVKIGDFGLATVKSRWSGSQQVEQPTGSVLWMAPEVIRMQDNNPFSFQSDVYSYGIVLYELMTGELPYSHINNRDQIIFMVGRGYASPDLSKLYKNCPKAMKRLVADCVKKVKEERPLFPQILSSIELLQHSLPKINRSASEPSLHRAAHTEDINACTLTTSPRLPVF
T1 sequence (P15056 whole entry): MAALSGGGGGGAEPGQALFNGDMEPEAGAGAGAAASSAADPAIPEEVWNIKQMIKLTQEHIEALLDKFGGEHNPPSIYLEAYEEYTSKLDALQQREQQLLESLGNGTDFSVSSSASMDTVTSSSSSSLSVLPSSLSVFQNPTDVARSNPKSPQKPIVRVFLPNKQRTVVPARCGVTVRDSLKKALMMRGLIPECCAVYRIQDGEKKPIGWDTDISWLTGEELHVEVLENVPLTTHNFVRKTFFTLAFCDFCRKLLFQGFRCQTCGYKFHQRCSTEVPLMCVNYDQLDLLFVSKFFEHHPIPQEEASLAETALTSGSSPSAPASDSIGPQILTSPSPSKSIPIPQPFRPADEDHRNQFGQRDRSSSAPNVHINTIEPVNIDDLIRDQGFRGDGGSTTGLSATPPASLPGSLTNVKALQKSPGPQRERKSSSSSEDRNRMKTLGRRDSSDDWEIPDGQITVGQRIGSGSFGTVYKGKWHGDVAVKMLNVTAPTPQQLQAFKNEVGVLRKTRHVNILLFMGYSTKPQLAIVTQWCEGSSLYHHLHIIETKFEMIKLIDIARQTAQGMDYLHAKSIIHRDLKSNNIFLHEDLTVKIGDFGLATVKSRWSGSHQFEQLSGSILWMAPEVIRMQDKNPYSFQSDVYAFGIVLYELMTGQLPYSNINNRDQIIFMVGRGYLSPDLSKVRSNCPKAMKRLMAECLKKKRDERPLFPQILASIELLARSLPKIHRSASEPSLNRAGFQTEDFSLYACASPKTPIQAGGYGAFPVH
T6 sequence (P10721 with tags, fused parts or gaps): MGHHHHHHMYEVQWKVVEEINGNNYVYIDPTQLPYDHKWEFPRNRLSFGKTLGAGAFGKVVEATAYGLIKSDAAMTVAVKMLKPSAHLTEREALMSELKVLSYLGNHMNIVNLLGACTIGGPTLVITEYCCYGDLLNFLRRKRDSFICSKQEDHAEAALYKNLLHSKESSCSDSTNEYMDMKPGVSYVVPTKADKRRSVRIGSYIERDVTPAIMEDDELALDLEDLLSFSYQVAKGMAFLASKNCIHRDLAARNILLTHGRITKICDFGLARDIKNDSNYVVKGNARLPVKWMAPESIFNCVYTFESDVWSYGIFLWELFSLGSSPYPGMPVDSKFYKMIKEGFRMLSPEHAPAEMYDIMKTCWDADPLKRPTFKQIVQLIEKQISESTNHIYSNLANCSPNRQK
T5 sequence (P07333 20-972): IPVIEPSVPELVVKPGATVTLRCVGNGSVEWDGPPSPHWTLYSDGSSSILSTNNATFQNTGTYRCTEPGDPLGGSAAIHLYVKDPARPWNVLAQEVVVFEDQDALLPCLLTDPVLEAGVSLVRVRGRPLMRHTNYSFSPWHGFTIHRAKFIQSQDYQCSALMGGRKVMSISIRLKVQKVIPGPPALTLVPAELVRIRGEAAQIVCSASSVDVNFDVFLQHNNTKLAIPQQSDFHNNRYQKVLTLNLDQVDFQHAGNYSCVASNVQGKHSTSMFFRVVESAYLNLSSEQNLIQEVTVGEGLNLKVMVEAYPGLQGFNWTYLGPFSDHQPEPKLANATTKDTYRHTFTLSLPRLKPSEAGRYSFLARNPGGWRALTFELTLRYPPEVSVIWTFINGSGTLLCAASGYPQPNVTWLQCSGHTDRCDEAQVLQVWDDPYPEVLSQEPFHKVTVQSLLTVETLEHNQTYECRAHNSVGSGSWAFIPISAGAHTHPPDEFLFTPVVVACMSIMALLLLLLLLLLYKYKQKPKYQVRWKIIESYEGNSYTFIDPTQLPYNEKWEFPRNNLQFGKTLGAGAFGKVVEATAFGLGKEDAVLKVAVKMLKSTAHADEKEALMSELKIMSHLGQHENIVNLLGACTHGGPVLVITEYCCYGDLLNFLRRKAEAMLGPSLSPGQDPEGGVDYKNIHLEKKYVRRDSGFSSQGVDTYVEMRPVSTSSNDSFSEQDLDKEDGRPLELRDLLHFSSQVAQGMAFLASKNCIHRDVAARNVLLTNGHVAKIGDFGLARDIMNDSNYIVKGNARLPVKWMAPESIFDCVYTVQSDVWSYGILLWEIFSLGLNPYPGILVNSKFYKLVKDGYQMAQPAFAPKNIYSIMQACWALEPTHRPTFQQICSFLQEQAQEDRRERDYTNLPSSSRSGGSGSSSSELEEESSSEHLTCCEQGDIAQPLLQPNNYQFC

Structure (SMILES)	IC50 (B-Raf) [µM]	IC50 (B-Raf V600E) [µM]	IC50 (c-Raf-1) [µM]	IC50 (FGFR1) [µM]	IC50 (Fms) [µM]	IC50 (Kit) [µM]	IC50 (Ret) [µM]	IC50 (Flt1) [µM]
O=C(Nc1cccc(C(=O)c2c[nH]c3ncccc23)c1)Nc1cc(C(F)(F)F)ccc1Cl [Compound P-1712, 1-(2-Chloro-5-trifluoromethyl-phenyl)-3-[3-(1H-pyrrolo[2,3-b]pyridine-3-carbonyl)-phenyl]-urea]	≤ 10	≤ 10	≤ 10		≤ 10	≤ 10		
O=C(Nc1cccc(C(=O)c2c[nH]c3ncccc23)c1)Nc1cccc(C(F)(F)F)c1F [Compound P-1714, 1-(2-Fluoro-3-trifluoromethyl-phenyl)-3-[3-(1H-pyrrolo[2,3-b]pyridine-3-carbonyl)-phenyl]-urea]	≤ 10	≤ 10	≤ 10		≤ 10	≤ 10		
O=C(Nc1ccccc1)Nc1cccc(C(=O)c2c[nH]c3ncc(Cl)cc23)c1 [Compound P-1733, 1-[3-(5-Chloro-1H-pyrrolo[2,3-b]pyridine-3-carbonyl)-phenyl]-3-phenyl-urea]	≤ 10	≤ 10	≤ 10		≤ 10	≤ 10		
O=C(Nc1cccc(C(=O)c2c[nH]c3ncc(Cl)cc23)c1)Nc1ccc(C(F)(F)F)cc1Cl [Compound P-1739, 1-[3-(5-Chloro-1H-pyrrolo[2,3-b]pyridine-3-carbonyl)-phenyl]-3-(2-chloro-4-trifluoromethyl-phenyl)-urea]	≤ 10	≤ 10	≤ 10		≤ 10	≤ 10		
O=C(Nc1cccc(C(=O)c2c[nH]c3ncc(Cl)cc23)c1)Nc1cccc(C(F)(F)F)c1F [Compound P-1740, 1-[3-(5-Chloro-1H-pyrrolo[2 3-b]pyridine-3-carbonyl)-phenyl]-3-(2-fluoro-3-trifluoromethyl-phenyl)-urea]	≤ 10	≤ 10	≤ 10		≤ 10	≤ 10		
CCc1cnc2[nH]cc(C(=O)c3c(F)ccc(NS(=O)(=O)c4ccc(C(F)(F)F)cc4)c3F)c2c1 [Compound P-1783, N-[3-(5-Ethyl-1H-pyrrolo[2,3-b]pyridine-3-carbonyl)-2,4-difluoro-phenyl]-4-trifluoromethyl-benzenesulfonamide]	≤ 10	≤ 10	≤ 10		≤ 10	≤ 10		
COCCOc1cnc2[nH]cc(C(=O)c3c(F)ccc(NS(=O)(=O)c4cccc(F)c4)c3F)c2c1 [Compound P-1871, N-{2,4-Difluoro-3-[5-(2-methoxy-ethoxy)-1H-pyrrolo[2,3-b]pyridine-3-carbonyl]-phenyl}-3-fluoro-benzenesulfonamide]	≤ 10	≤ 10	≤ 10		≤ 10	≤ 10		
CCCS(=O)(=O)Nc1ccc(F)c(C(=O)c2c[nH]c3ncc(-c4ccc(N5CCOCC5)nc4)cc23)c1F [Compound P-1881, Propane-1-sulfonic acid {2,4-difluoro-3-[5-(6-morpholin-4-yl-pyridin-3-yl)-1H-pyrrolo[2,3-b]pyridine-3-carbonyl]-phenyl}-amide]	≤ 10	≤ 10	≤ 10		≤ 10	≤ 10		
CCCS(=O)(=O)Nc1ccc(F)c(C(=O)c2c[nH]c3ncc(-c4ccc(N5CCN(C)CC5)nc4)cc23)c1F [Compound P-1882, Propane-1-sulfonic acid (2,4-difluoro-3-{5-[6-(4-methyl-piperazine-1-yl)-pyridin-3-yl]-1H-pyrrolo[2,3-b]pyridine-3-carbonyl}-phenyl)-amide]	≤ 10	≤ 10	≤ 10		≤ 10	≤ 10		

More lines, now with the values ahead:

IC50 (B-Raf) [µM]	IC50 (B-Raf V600E) [µM]	IC50 (c-Raf-1) [µM]	IC50 (FGFR1) [µM]	IC50 (Fms) [µM]	IC50 (Kit) [µM]	IC50 (Ret) [µM]	IC50 (Flt1) [µM]	Structure (SMILES)
≤ 10	≤ 10	≤ 10	≤ 10	≤ 10	≤ 10			COc1cc(Cc2c[nH]c3ncc(-c4ccsc4)cc23)cc(OC)c1 [Compound P-0613]
≤ 10	≤ 10	≤ 10	≤ 10	≤ 10	≤ 10			O=C(c1c(F)ccc(NS(=O)(=O)c2ccccc2)c1F)c1c[nH]c2ncc(Br)cc12 [Compound P-0798, N-[3-(5-Bromo-1H-pyrrolo[2,3-b]pyridine-3-carbonyl)-2,4-difluoro-phenyl]-benzenesulfonamide]
≤ 10	≤ 10	≤ 10	≤ 10			≤ 10		CS(=O)(=O)Nc1ccc(Cl)c(C(=O)c2c[nH]c3ncc(-c4cccc(S(C)(=O)=O)c4)cc23)c1F [Compound P-0841, N-{4-Chloro-2-fluoro-3-[5-(3-methanesulfonyl-phenyl)-1H-pyrrolo[2,3-b]pyridine-3-carbonyl]-phenyl}-methanesulfonamide]
≤ 10	≤ 10	≤ 10	≤ 10				≤ 10	CS(=O)(=O)Nc1ccc(Cl)c(C(=O)c2c[nH]c3ncc(Br)cc23)c1F [Compound P-0868, N-[3-(5-Bromo-1H-pyrrolo[2,3-b]pyridine-3-carbonyl)-4-chloro-2-fluoro-phenyl]-methanesulfonamide]
≤ 10	≤ 10	≤ 10				≤ 10		COC(c1ccc(NCc2ccc(Cl)cc2)nc1)c1c[nH]c2ncc(-c3cccnc3)cc12 (stereo not shown) [Compound P-0939]
≤ 10	≤ 10	≤ 10				≤ 10		COC(c1ccc(NCc2ccc(Cl)cc2)nc1)c1c[nH]c2ncc(-c3cccc(S(C)(=O)=O)c3)cc12 (stereo not shown) [Compound P-0998]
≤ 10	≤ 10	≤ 10	≤ 10	≤ 10	≤ 10		≤ 10	CCCS(=O)(=O)Nc1ccc(F)c(C(=O)c2c[nH]c3ncc(N4CCN(C)CC4)cc23)c1F [Compound P-1246, propane-1-sulfonic acid {2,4-difluoro-3-[5-(4-methyl-piperazin-1-yl)-1H-pyrrolo[2,3-b]pyridine-3-carbonyl]-phenyl}-amide]
≤ 10	≤ 10	≤ 10	≤ 10	≤ 10	≤ 10			COc1ccc(F)c(C(=O)c2c[nH]c3ncc(Br)cc23)c1F [Compound P-1386, (5-Bromo-1H-pyrrolo[2,3-b]pyridin-3-yl)-(2,6-difluoro-3-methoxy-phenyl)-methanone]
≤ 10	≤ 10	≤ 10	≤ 10	≤ 10	≤ 10			CC(=O)Nc1cccc(-c2cnc3[nH]cc(C(=O)c4cccc(C(F)(F)F)c4)c3c2)c1 [Compound P-1419, N-{3-[3-(3-Trifluoromethyl-benzoyl)-1H-pyrrolo[2,3-b]pyridin-5-yl]-phenyl}-acetamide]
≤ 10	≤ 10	≤ 10		≤ 10	≤ 10		≤ 10	O=C(c1c(F)ccc(NS(=O)(=O)c2ccc(C(F)(F)F)cc2)c1F)c1c[nH]c2ncc(Cl)cc12 [Compound P-1541, N-[3-(5-Chloro-1H-pyrrolo[2,3-b]pyridine-3-carbonyl)-2,4-difluoro-phenyl]-4-trifluoromethyl-benzenesulfonamide]
